“Also recorded” adds a separate entry of the source.
How the values were obtained:
SMARCA2 = SMARCA2 expression (Taqman quantitative RT-PCR, Western blot); conditions: for induction of SMARCA2 transcript and protein: 6 or 10 days
[1] = test system: ARID1A-mutant cancer cell lines; test: Clonogenic assay (colony formation); format: cell-based, human
Description: (§1) 1,800-5,000 cells were plated in each 6-well plate, according to the doubling time. 24 hours after plating, the medium was removed and replaced with medium containing EPZ-6438 at different concentrations. Fresh medium with EPZ-6438 was replaced every 3 to 4 days until control cells reached confluence to stop culture. For studies evaluating the effect of EZH2 knockout, cells were plated 7 days following puromycin selection. The medium was removed, and cells were washed with PBS and stained with 0.5% crystal violet for 20 minutes at room temperature. Dye was removed, cell monolayers were washed with water, and the plate was washed and photographed.

ARID1A-mutant cell lines = test: 3D Matrigel culture, acini formation; format: cell-based, human
Description: Wells of a 24 well plated were coated with 70 μl Matrigel Matrix (Corning) and allowed to congeal at room temperature. Cells (n=5,000) were plated on top of the basement matrix in 400 μl RPMI+10% FBS containing 2% Matrigel matrix. Cells were treated with the respective compounds in 400 μl media to replenish the old media. Colonies were imaged on a Zeiss Axio Observer A1 microscope 10 days after the start of experiment.

[2] = test system: SMARCA4-mutant cancer cell lines; test: Clonogenic assay (colony formation)
[3] = test system: H3K27me3 at the SMARCA2 promoter; test: H3K27me3 ChIP-PCR; format: cell-based, human; conditions: TOV-112D cells
Description: For each sample, 10×10^6 cells were harvested and washed with 1×PBS. Cells were fixed and sheared following the instructions provided with the truChlP Chromatin Shearing Reagent Kit (Covaris). Cells were fixed for 5 minutes with 1% formaldehyde and then quenched with quenching buffer for 5 minutes. Cells were then washed with cold 2×PBS. Nuclei were isolated and sheared using the Covaris AFA Focused-ultrasonicator for 20 minutes. The IP was conducted with 500 μg sheared chromatin and 10 μg anti-H3K27me3 (Active Motif cat #39155) or anti-Rabbit IgG. The Magna ChIP kit (Millipore) was used for IP. For each IP, a 50 μl mixture of Dynabeads protein A and G (50/50 mix) was incubated with primary antibody for 3 hours. The beads were added to 500 μg of sheared chromatin. The beads and antibodies were incubated overnight at 4° C. The beads were then washed with the following wash buffers: low salt, high salt, LiCI wash buffer, and TE Buffer. DNA was extracted from the beads in ChIP elution buffer with protease K at 64° C. with shaking overnight. DNA was then purified using the QIAquick PCR Purification Kit (Qiagen). DNA was eluted with 30 μl of water. 1.0 μl of eluted DNA was used for each SYBR green PCR reaction. SMARCA2 was amplified using the following primers: forward, […] (SEQ ID NO: 27); reverse, […] (SEQ ID NO: 28). […]

cathepsin B (CTSB) = test: CTSB transcript and protein expression; format: cell-based, human; conditions: TOV-112D control cells, 5 μM
Description: For studies evaluating EPZ-6438 effects, cells were treated with various doses of EPZ-6438 for 6 days. On day 3, fresh medium containing EPZ-6438 was introduced. Cell pellets were lysed in RIPA buffer containing 1M NaCl and homogenized for 3 minutes at speed 10 (NextAdvance, Bullet Blender® 24). 12 μg or 18 μg protein was dissolved in 4-12% bis-Tris or 3-8% Tris-acetate gel and transferred to polyvinylidend difluoride (PVDF) membranes. IRDYE® secondary antibodies were used for detection by an Odyssey Imager (LI-COR). Total RNA was extracted using Qiagen RNeasy Plus Mini kit, according to the manufacturers protocol. Quality control of samples was performed to determine RNA quantity and quality prior to their processing by RNA-seq. The concentration of RNA samples was determined using NanoDrop 8000 (Thermo Scientific) and the integrity of RNA was determined by Fragment Analyzer (Advanced Analytical Technologies). 0.5 μg of total RNA was used as an input material for library preparation using TruSeq RNA Sample Preparation Kit v2 (Illumina). Size of the libraries was confirmed using 2200 TapeStation and High Sensitivity D1K screen tape (Agilent Technologies), and their concentration was determined by qPCR based method using Library quantification kit (KAPA). The libraries were multiplexed and sequenced on Illumina HiSeq2500 (Illumina) to generate 30M of single end 50 base pair reads.

[4] = test system: SMARCA4-mutant cell lines; test: Caspase 3/7 apoptosis assay; format: cell-based, human; conditions: several other models, prolonged exposure
Description: (§2) Apoptosis was monitored through (a) live cell imaging analysis using the Incucyte Caspase-3/7 Apoptosis Assay (Essen Biosciences, Cat. No. 4440) or through a static time point assessment using the Caspase-Glo 3/7 Assay (Promega, G8090). For Incucyte-based assays (FIG. 4B), 300-600 cells (based on doubling time) were plated in 96-well plates, and at 24 hours, media was replaced with EPZ-6438-containing media at the indicated concentrations and Caspase 3/7 reagent (Essen Bioscience). Fresh media containing EPZ-6438 and Caspase 3/7 reagent was replaced every 3 to 4 days. Phase contrast and fluorescent images were collected every 3 hours, and the number of fluorescent objects were counted and analyzed according to the Incucyte protocol. Data are presented as Caspase 3/7 fluorescent counts normalized to DMSO control at the indicated time points. For determination of apoptosis by Caspase-Glo (FIG. 18C, 19G), TO[…] cells were plated at 500 cells per well in a 96 well plate and treated with the indicated concentrations of EPZ-6438 for 6 days. Caspase 3/7 activity was measured according to the manufacturer's instructions, and results were normalized to signal in DMSO control wells, when indicated. To evaluate senescence induction, cells were stained for β-galactosidase activity using the Senescence Cells Histochemical Staining Kit (Sigma), according to the manufacturers instructions.

TOV-112D cells = test: Caspase 3/7 apoptosis assay; format: cell-based, human
Description: as §2

[5] = test system: H3K27me3 in TOV-21G tumor xenograft tissue; test: Pharmacodynamic Western blot of xenograft tumor tissue; format: in vivo, mouse; conditions: day 7, three hours following twice-daily oral administration
Description: (§3) Plasma and tumor samples for pharmacodynamic analysis were collected from tumor-bearing mice on day 7, 3 hours following the last dose. Tumor tissue was lysed in RIPA buffer containing 1M NaCl and homogenized for 3 minutes at speed 10 (NEXTADVANCE, BULLET BLENDER® 24) prior to Western blotting.

[6] = test system: H3K27 methylation in NCI-H522 tumor xenograft tissue; test: as above; format: in vivo, mouse; conditions: strongest at 450 mg/kg BID; day 7, three hours after dosing
Description: as §3

[7] = test system: mono-, di-, and tri-methylated H3K27; test: Western blot of H3K27 methylation in cells
TOV-21G tumor xenografts = test: Xenograft study, tumor growth; format: in vivo, mouse; conditions: SCID mice, 450 mg/kg BID, 28 days
Description: (§4) TOV-21G and NCI-H522 cells (American Type Culture Collection, Manassas, Va.) were cultured in vitro and harvested in HBSS:Matrigel (BD Biosciences; Franklin Lakes, N.J.) (1:1, v:v) for subcutaneous inoculation into female mice. TOV-21G cells were inoculated into Fox Chase SCIO® Beige mice (Charles River Laboratories, San Diego, Calif.). NCI-H522 cells were inoculated into BALB/c Nude mice (Vital River Laboratories, Beijing, China). Mice bearing established tumors were separated into groups of equally sized tumors (n=5, minimum) to receive escalating doses of EPZ-6438. EPZ-6438 was formulated once weekly in 0.5% sodium carboxymethylcellulose and 0.1% tween-80 at concentrations needed for target doses in a volume of 0.2 ml. All formulations were stored at 4° C., brought to room temperature, and mixed by vortex before oral administration by gavage twice daily from Day 1 until the end of the study. Tumor volumes were calculated from perpendicular length and width caliper measurements using the formula:
(§5) Tumor Volume (mm^3)=0.5×(Length×Width^2).
(§6) A mixed modeling approach was used to analyze the repeated measurement of tumor volumes from the same animals over time. Cubic regression splines were used to fit a nonlinear profile to the time courses of log 2-transformed tumor volumes in each group. Fitting was done via a linear mixed-effects model, using the package “nlme” (version 3.1-97) in R version 2.13.0 (R Development Core Team 2008; R Foundation for Statistical Computing; Vienna, Austria). Fitted tumor volumes were plotted in the natural scale in Prism (version 5.0b for Mac) (GraphPad Software; La Jolla, Calif.).

NCI-H522 xenografts = test: Xenograft study, tumor growth; format: in vivo, mouse; conditions: oral
Description: as §4, §5, §6

SWI/SNF wild-type models = test: Clonogenic assay (colony formation); format: cell-based, human; conditions: panel (n=8) of cell lines wildtype for SWI/SNF complex genes
Description: as §1

[8] = test system: SMARCB1-mutant malignant rhabdoid tumor lines; test: Clonogenic assay (colony formation); format: cell-based, human; conditions: two SMARCB1-mutant malignant rhabdoid tumor lines
Description: as §1

NCI-H522 cells = test: Edu incorporation (DNA synthesis); format: cell-based, human; conditions: 8 weeks of treatment, relative to resistant NCI-H1568
[9] = test system: SMARCA4-mutant cell lines; test: Cell morphology after prolonged treatment; format: cell-based, human; conditions: EPZ-6438-sensitive models, 21 days of treatment, 5 μM
[10] = target: SMARCA4-mutant EPZ-6438-sensitive models; test: Senescence β-galactosidase staining; format: cell-based, human
Description: as §2

[11] = OVTOKO and OVISE ARID1A-mutant cell lines
[12] = SMARCA4-mutant cells resistant to EPZ-6438 (H1299, A549)
[13] = SMARCA4-mutant cells sensitive to EPZ-6438 (SNU-484, TOV112D), dose-dependent
[14] = COV434, SNU-484 and G401 cells expressing shBRM

SMILES: Nc1ncn([C@H]2C[C@H](O)[C@@H](CO)O2)c(=O)n1 [5-aza-2′-deoxycytidine]
- SMARCA2 mRNA levels (SMARCA2; SMARCA4-mutant cells with repressed SMARCA2): did not impact

SMILES: CCS(=O)(=O)N1CCC([C@@H](C)n2c(C)c(C(=O)NCc3c(OC)cc(C)[nH]c3=O)c3ccccc32)CC1 [CPI-169]
- differential sensitivity of colony formation ([1]; ARID1A-mutant versus ARID1A-WT ovarian cell lines): phenocopied
- acini formation (ARID1A-mutant cell lines; A2780 cells (positive control)): inhibition of both clonogenic growth and acini formation
- acini formation (ARID1A-mutant cell lines; [11]): lack of activity
- colony formation [2, 12]: no effect
- colony formation [2, 13]: inhibited colony formation

SMILES: CCN(c1cc(-c2ccc(CN3CCOCC3)cc2)cc(C(=O)NCc2c(C)cc(C)[nH]c2=O)c1C)C1CCOCC1 [EPZ-6438]
- association of H3K27me3 with the SMARCA2 gene promoter [3]: significant decrease
- CTSB transcript and protein (cathepsin B (CTSB)): strongly upregulated
- apoptosis (caspase 3/7) [4]: subpopulations of apoptotic cells
- dose-dependent induction of apoptosis in cells expressing shBRM (TOV-112D cells; TOV-112D cells expressing shBRM, 6 days): prevented
- activation of caspase 3/7 in cells expressing shCTSB (TOV-112D cells; TOV-112D cells expressing shRNAs targeting CTSB): significantly suppressed
- apoptotic response (caspase 3/7) (TOV-112D cells; TOV-112D cells, seven days of treatment): strong apoptotic response
- H3K27me3 in tumor tissue [5]: target inhibition
- H3K27me3 and H3K27me2 in tumor tissue [6]: reduction of H3K27me3 and H3K27me2
- inhibition of H3K27 methylation in cells expressing shBRM [7, 14]: no effect on the ability of EPZ-6438 to inhibit H3K27 methylation
- inhibition of mono-, di-, and tri-methylated H3K27 ([7]; EPZ-6438-sensitive and EPZ-6438-resistant cell lines, dose-dependent, 6-day treatment): inhibited mono-, di-, and tri-methylated H3K27 to a similar extent
- tumor growth inhibition (TOV-21G tumor xenografts): tumor growth inhibition
- tumor growth inhibition (TGI) (NCI-H522 xenografts; 450 mg/kg BID): 72%
- inhibition of tumor growth (NCI-H522 xenografts; twice daily (BID), 30, 100, 450 mg/kg, 23 days): dose-dependent inhibition of tumor growth
- activity on colony formation (SWI/SNF wild-type models): No activity; also recorded: No effect
- inhibition in colony formation [8]: inhibition in colony formation
- inhibition in colony formation ([1]; panel of ARID1A-mutant cancer cell lines): inhibition in colony formation was observed in a subset
- DNA synthesis / proliferative state by Edu incorporation (NCI-H522 cells): non-proliferative state; also recorded: inhibition of DNA synthesis
- morphologic changes (cell flattening and enlargement) [9]: pronounced morphologic changes
- acini formation (ARID1A-mutant cell lines; A2780 cells (positive control)): inhibition of both clonogenic growth and acini formation
- acini formation (ARID1A-mutant cell lines; [11]): lack of activity
- kinetics of senescence induction (homogenous β-galactosidase expression) ([10]; COV434 model): homogenous expression of β-galactosidase by seven days
- kinetics of senescence induction (homogenous β-galactosidase expression) ([10]; NCI-HS22 cells): not observed until a few weeks
- senescence-associated β-galactosidase expression ([10]; some SMARCA4-mutant EPZ-6438-sensitive models, most notable in COV434 and NCI-HS22): Increases in senescence-associated β-galactosidase expression
- colony formation in cells expressing SMARCA2 shRNA (shBRM) [2, 14]: did not affect the ability of EPZ-6438 to inhibit colony formation
- dose-dependent inhibition of colony formation in cells expressing shBRM ([2]; TOV-112D cells expressing shBRM): prevented the dose-dependent inhibition of colony formation
- inhibition in colony formation ([2]; panel of 11 SMARCA4-mutant cancer cell lines, increasing doses): dose-dependent inhibition in colony formation was observed in a subset
- induction of SMARCA2 transcript and protein (SMARCA2; EPZ-6438-resistant SMARCA4-mutant cell lines, 5 μM): but not EPZ-6438-resistant
- induction of SMARCA2 (SMARCA2; EPZ-6438-sensitive ARID1A-mutant A2780 cells, 5 μM, 6 days): induction of SMARCA2
- induction of SMARCA2 transcript and protein (SMARCA2; EPZ-6438-sensitive SMARCA4-mutant cell lines, 5 μM): strong induction
- SMARCA2 levels (SMARCA2; SMARCB1-mutant MRT line G401, 6 days, EPZ-6438 5 μM, 5-Aza 1 μM): induction in SMARCA2 levels

SMILES: CC[C@H](C)n1cc(C)c2c(C(=O)NCc3c(C)cc(C)[nH]c3=O)cc(-c3ccc(N4CCNCC4)nc3)cc21 [GSK-126]
- colony formation [2, 12]: no effect
- colony formation [2, 13]: inhibited colony formation

Source: patent publication US20210338684A1, “DIAGNOSTIC AND THERAPEUTIC METHODS FOR CANCER” (Genentech, Inc., priority 2016, published 2021)
